Assay results taken from patent publication US5501976A, “Methods and compositions for the control of the flesh fly” (The University of Florida, priority 1995, dated 1996).
Where “and” joins values, the source holds several entries; their conditions need not be identical. Equal entries are not always repeated. Where two headings read alike, the source gives them in different places. Where no end group is shown, it is not given here.

Experiments:
[1] = tested on: ecdysone biosynthesis by ring glands; assay: In vitro ecdysone biosynthesis by larval ring glands; type: cell-based, Calliphora and Neobellieria
[2] = tested on: vitellogenin biosynthesis; assay: Vitellogenin in hemolymph of injected females (SDS-PAGE); type: in vivo, Neobellieria
Method: Electrophoresis and fluorography. ^3 H!DIP-trypsin-like derivatives of 0.04 gut equivalent and 20 μl sample buffer were run by electrophoresis on 12.5% polyacrylamide gel for 1 hour at 20 mA and for 3 hours at 30 mA (Biorad protean 32 CM) (Laemmli, 1970; Borovsky and Schlein, 1988). Gels were stained for 20 minutes with Coomassie Brilliant Blue R250 and destained overnight with methanol/H2 O/acetic acid (40/50/10), and washed 2 times for 30 minutes in 100 ml dimethylsulfoxide (DMSO). Gels were then incubated for 2 h in 200 ml DMSO containing 44 g 2,5-diphenyloxazole (PPO) (Janssen Chimica, Belgium), rinsed with distilled water for 1 hour, dried for 2 hours in a Biorad slab gel dryer at 80° C. and exposed to a Hyperfilm-MP (Amersham) for 2 days at -70° C. Vitellogenin was separated on a 5-15% SDS gradient gel (Huybrechts and De Loof 1977).
Four-day-old females were injected with synthetic Neb-TMOF at final concentration of 10^-9 M. Twenty-four hours later, hemolymph was collected and subjected to PAGE. […] The three yolk polypeptides of vitellogenin were affected (FIG. 7). The decrease in vitellogenin in the hemolymph is probably due to the inhibition of trypsin biosynthesis and decrease in protein digestion in the gut. The Neb-TMOF can also affect the fat body, which is the major site of yolk polypeptide biosynthesis in Neobellieria.

[3] = tested on: trypsin biosynthesis in the midgut of female Neobellieria bullata; assay: Effect of injected peptide on trypsin biosynthesis in the gut ([3H]DFP assay); type: in vivo
trypsin-like enzymes = assay: Gut supernatant incubated with Neb-TMOF: conversion of [3H]DFP to [3H]DIP-trypsin derivatives; type: biochemical, Neobellieria; conditions: gut supernatant incubated 18 hours at 4° C. with Neb-TMOF (FIG. 6)
ecdysteroid titer = assay: In vivo ecdysteroid titer in larvae; conditions: ten picomole per larva, within 18 hours

## NPTNLH [Neb-TMOF, NH2 -Asn-Pro-Thr-Asn-Leu-His-COOH]
[1]
  PTIH effect, onset and reversibility: immediate and reversible
[1]; 10^-7 M
  ecdysone biosynthesis inhibited: More than 98%
[1]; ring glands of Neobellieria and Calliphora, read-out: EC50 of the biosynthesis of ecdysone by ring glands
  EC50: 5 nM
[1]; ring glands of larvae of Calliphora and Neobellieria, read-out: EC50 of in vitro ecdysone biosynthesis by ring glands
  EC50: 5 nM
[2]; 10^-9 M injected, 24 hours later, PAGE
  vitellogenin level in hemolymph compared with non-injected controls: low level of vitellogenin
[2]; injection of the hormone
  egg yolk synthesis after injection: inhibited egg yolk synthesis
[3]; 10^-8 M, injected 4-day-old females
  inhibition of trypsin biosynthesis: 35%
[3]; 10^-9 M injected, liver meal, guts removed 6 h later (FIG. 6)
  reduction in trypsin-like enzymes as compared with controls: 51%
[3]; 10^-9 M, injected females
  inhibition of trypsin biosynthesis: 60% and 50%
[3]; 10^-11 M
  inhibition of trypsin biosynthesis: No inhibition
[3]; column purification step 1, 1.25 ovary equivalents, P<0.05
  inhibition of trypsin biosynthesis: 44%
[3]; column purification step 2, 3.7 ovary equivalents, P<0.05
  inhibition of trypsin biosynthesis: 38%
[3]; column purification step 3, 10 ovary equivalents, P<0.05
  inhibition of trypsin biosynthesis: 43%
[3]; column purification step 4, 10 ovary equivalents, P<0.05
  inhibition of trypsin biosynthesis: 44%
[3]; column purification step 5, 38.5 ovary equivalents, P<0.05
  inhibition of trypsin biosynthesis: 20%
[3]; in vivo, 10^-8 M and 10^-9 M, P<0.05
  inhibition of trypsin biosynthesis in the gut, significance (FIG. 5): Significant inhibition
[3]; physiological concentrations
  effective dose of 50% inhibition (ED50) of trypsin biosynthesis: 10^-9 M
[3]; versus mosquito TMOF
  activity in Neobellieria relative to mosquito TMOF: six fold more active
trypsin-like enzymes
  reduction in [3H]DIP-trypsin derivatives compared with controls: No reduction
Ecdysteroid titer
  reduction of ecdysteroid titer in vivo: up to a factor of four

## CSCC[C@H](NC(=O)[C@H](Cc1ccccc1)NC(=O)CNC(=O)CNC(=O)[C@@H](N)Cc1ccc(O)cc1)C(=O)O [methionine-enkephalin, H-YGGFM-OH, reference compound]
[3]; injected with 10^-7 M, control group
  effect on trypsin-like activity: without an effect
